This note sets out measurements from patent publication US20170211048A1, “ENHANCED REPROGRAMMING TO IPS CELLS” (Boehringer Ingelheim International GmbH, priority 2014, published 2017).

Common to all, as to type: cell-based, mouse
In series [1] the test system is Reprogrammable transgenic MEFs (Tet-OKSM, Rosa26-rtTAM2, Oct4-GFP). Put plainly: transient siRNA transfection during iPSC reprogramming. The following applies: siRNA transfected 1 to 3 times during doxycycline treatment. The source says: FIG. 26: Transient suppression of Chaf1a, Chaf1b or Ube2i using siRNA transfection enhances iPSC reprogramming. Reprogrammable transgenic MEFs (Tet-OKSM, Rosa26-rtTAM2, Oct4-GFP) where transfected 1 to 3 times at the indicated days of doxycyline treatment with siRNAs targeting Renilla, Chaf1a, Chaf1b, Ube2i. Shown is the fraction of Oct4-GFP positive cells after 11 days. […] Suppression of these targets at early time points of reprogramming (day 1-3 following OKSM expression) seems critical and sequential transfections at different days can enhance this effect. […] The siRNA molecules used in the study have the following sequence: Ube2i.414—2: […] (SEQ ID NO:103), Chaf1a.3120 […] (SEQ ID NO:104), Chaf1b.271 […] (SEQ ID NO:105) and Ren.713 […] (SEQ ID NO:106).

Series [2] concerns Oct4-GFP;CAGGS-rtTA3 double-transgenic MEFs. Put plainly: short-term transient OKSM expression and Tet-regulated shRNA. To be noted: doxycycline for 2 or 4 days. Here is the method:
FIG. 22: Short-term transient expression of OKSM and suppression of Chaf1a for only 2-4 days enable robust iPSC reprogramming. Oct4-GFP;CAGGS-rtTA3 double-transgenic MEFs were first transduced with a Tet-regulatable shRNA expression vector encoding a potent Chaf1a shRNA (T3G-mCherry-miRE.Chaf1a.3118), and 3 days later transduced with lentiviral vectors inducibly expressing OKSM from the Tet-responsive promoters TRE (TetO-STEMCCA) or TRE3G (T3G-4Fpuro). Cell were treated with doxycyline for 2 or 4 days starting at day in OKSM infection, triggering a transient and reversible OKSM expression and Chaf1a suppression. Shown is the percentage of Oct4-GFP positive cells at day 11 after lentiviral infection. Error bars indicate standard deviation (SD) of 3 biological replicates. Suppression of Chaf1a, Chaf1b and Ube2i enhance iPSC reprogramming in the use of both Tet-inducible OKSM expression vectors.

Series [3] relates to reprogrammable MEFs. Nature of the series: FACS based timeline of Oct4-GFP expression during reprogramming. The following applies: days of OKSM expression, FIG. 3. The source says:
In order to observe the kinetics of reprogramming in the enhanced reprogramming regimen, we quantified GFP positive cells using FACS analysis. GFP driven from the endogenous Oct4 locus serves as a marker for Oct4 expression and thus iPS and possibly pre-iPS state. […] In contrast, Ube2i suppression only slightly accelerated the reprogramming timeline, but made the process much more efficient, and ultimately exceeds the effects of observed for Caf-1 suppression (i.e. the percentage of GFP+ cells actually overtakes the enhancement achieve through Caf-1 suppression at day 10).
The inventors further decided to examine the effects of the gene expression reduction in the absence of the identified chromatin barriers, by following the emergence of Oct4-GFP^+ cells over time. While suppression of Ube2i promoted Oct4-GFP activation slightly earlier than controls (day six with Ube2i shRNA vs. day nine with Renilla shRNA), the suppression of either CAF-1 subunit triggered a dramatic acceleration of this process and consistently generated Oct4-GFP+ cells as early as four days of OKSM expression (FIG. 3). Similar effects were observed by flow cytometry-based analysis of Nanog expression (FIG. 15).

Series [4] concerns MEFs with doxycycline inducible reprogramming factors. Put plainly: iPS colony formation assay in serum replacement, LIF and 2i. To be noted: 2i plus LIF at single cell density, 10000 cells/10 cm dish, doxycycline 7 days. An excerpt:
In order to test the achieved factor of iPS formation enhancement in a colony formation assay, we chose optimal conditions described for iPS formation, i.e. serum replacement, LIF and 2i. The two inhibitors (2i) are shown to support the ground state of pluripotency and enhance iPS formation. More specifically, 2i supports the transition of pre-iPS cells to iPS cells.
In doing so, we intended to measure the factor of improvement in optimal, potentially saturated conditions. 10000 cells were plated/10 cm dish and reprogramming was induced by addition of doxycycline for 7 days. Reprogramming in presence of 2i furthermore represents an additional condition to test versatility of herein described enhanced reprogramming regimen. […]

The test system of series [5] is OSKM/RR/OG-MEFs. Nature of the series: single-shRNA validation, flow cytometry of the Oct4-GFP reporter. To be noted: FIG. 1, day 11 after doxycycline induction; DMEM with FCS and ascorbate. Here is the method:
To validate hits identified in the primary multiplexed screen, a set of 32 independent shRNAs including several of the top hits as well as a panel of intermediately scoring shRNAs were tested in single assays. To this end, OSKM/RR/OG-MEFs were transduced with individual pLENC shRNAs in biological triplicates, selected, and treated with Dox for OSKM induction. The iPS reprogramming efficacy was quantified using flow cytometry analysis of the Oct-4-GFP reporter (FIG. 1) and microscopy (FIG. 2a).
To this end, described MEFs with doxycycline inducible reprogramming factors (OSKM, 4F, Yamanaka factors) were transduced with pLENC-shRNA vectors (co-expressing miRE-based shRNAs, mCherry and a Neo resistance gene) in biological triplicate as described previously. Selection for infected cells was based on G418 resistance. 3 days after infection, cells were trypsinized and each replicate was plated in multiple wells in presence of FCS and ascorbate containing medium as well as doxycycline. Cells were subjected to various conditions for iPS formation starting 24 h after Doxycycline addition, i.e. prior to expected full expression of OSKM factors. Doxycycline was added to media for 7 days. […]
shRNAs were transduced into OSKM MEFs. […] Cells were analyzed using a FACS BD LSRFortessa.

“CACAATTTACTGCCAAAACAA (listed as DNA, chemistry not fully specified) [Ube2i.414—2]”: in series [1], the “effect on fraction of Oct4-GFP positive cells after 11 days” value is recorded as “enhances reprogramming”. The same measure, in the same setting: the entry for “CAGCTACTTCCAAATTGTAAA (listed as DNA, chemistry not fully specified) [Chaf1a.3120]” is “enhances reprogramming”. In the case of “UUUACAAUUUGGAAGUAGCUG (expressed or natural sequence) [Chaf1a.3118]”, the “iPS cell formation (Oct4-GFP positive cells at day 11)” value in series [2] is recorded as “robust formation of iPS cells”. On to “shRNA.Ren.713: neutral control shRNA (Ren.713) targeting Renilla (guide AGGAATTATAATGCTTATCTA)”, for which the “time of Oct4-GFP activation” value in series [3] is “day nine”. The Colony number in series [4] amounted to 0. The “Oct4-GFP+ cells” value in series [5] is given as less than 1%.
